From US20240368122A1, “JAK2 INHIBITORS AND METHODS OF USE THEREOF” (RELAY THERAPEUTICS, INC., priority 2021, published 2024)
Read-outs that look alike come from different tables or passages of the source.

Assays:
[1] = target: T1, JAK2 JH2 WT (V536-D812) [W659A, W777A, F794H solubilizing mutations] (Homo sapiens, UniProt O60674, F794H/W659A/W777A); experiment: Surface Plasmon Resonance (SPR) binding assay, JAK2 JH2 domain
T1 construct: **JAK2 JH2 WT (V536-D812) [W659A, W777A, F794H solubilizing mutations]; C-thrombin-avi-His6; thrombin cleavage site (C); His6 (C); purchased Biortus
Method in brief: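 Kinetics came from 1:1 fits of single-cycle runs at 20 °C: four 3-fold dilutions from 5 uM for JH1 or 500 nM for JH2, 60 s association, and 300 s or 1200 s dissociation respectively. Protein was freshly captured per compound in the presence of 10 uM stabilizer compound, with running buffer of pH 7.5 HEPES/NaCl/glycerol/DTT plus 2% DMSO.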

[2] = system: TF1 JAK2 V617F STAT3 reporter; experiment: Cellular TF1 STAT3 assay (luciferase reporter), JAK2 V617F; format: cell-based; conditions: Homo sapiens, TF-1, TF1 cells, JAK2 V617F, read-out: Cell PD-TF1 JAK2 V617F STAT3 (IC50)
Method in brief: (§1)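 Measured in TF1 cells with mutant JAK2 V617F and STAT-responsive luciferase: 18-20 h compound exposure at 37 °C, then ONE-glo luminescence.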

[3] = system: TF1 JAK2 V617F STAT5 reporter; experiment: Cellular TF1 STAT5 assay (luciferase reporter), JAK2 V617F; format: cell-based; conditions: Homo sapiens, TF-1, TF1 cells, JAK2 V617F, read-out: Cell PD TF1 V617F STAT5 (IC50)
Method in brief: as §1

T1 sequence (O60674 536-812 W659A/W777A/F794H): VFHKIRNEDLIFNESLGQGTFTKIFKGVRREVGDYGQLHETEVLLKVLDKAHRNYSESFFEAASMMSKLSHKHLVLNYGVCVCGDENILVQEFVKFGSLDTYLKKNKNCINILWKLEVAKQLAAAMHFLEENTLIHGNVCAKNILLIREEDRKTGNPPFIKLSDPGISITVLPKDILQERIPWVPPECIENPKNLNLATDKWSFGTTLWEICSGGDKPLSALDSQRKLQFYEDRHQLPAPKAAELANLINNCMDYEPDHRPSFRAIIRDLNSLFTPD

SMILES | Kd [1] | IC50 [2] | IC50 [3] | Kd ([1]; SPR, JAK2 JH2 domain)
CNC(=O)c1nnc(NC(=O)C2CC2)cc1Nc1ccc(C)c(-c2cnc(C(=O)N(C)Cc3cc(S(C)(=O)=O)ccn3)c(F)c2)c1OC [Compound 340] | 0.01 to 10 nM | 50 to 500 nM | 50 to 500 nM | 
CNC(=O)c1nnc(NC(=O)OC2CC2)cc1Nc1cccc(-c2cnn(C3CN(Cc4ccccn4)C3)c2)c1OC [Compound 342] | 0.01 to 10 nM | 500 to 5000 nM | 500 to 5000 nM | 
CNC(=O)c1nnc(NC(=O)C2CC2)cc1Nc1cccc(-c2cnn(C3CN(Cc4cccc(C5COC5)n4)C3)c2)c1OC [Compound 343] | 0.01 to 10 nM | 50 to 500 nM | 50 to 500 nM | 
CNC(=O)c1nnc(NC(=O)C2CC2)cc1Nc1ccc(C)c(-c2ccc(C(=O)N(C)Cc3cc(S(C)(=O)=O)ccn3)nc2)c1OC [Compound 347] | 0.01 to 10 nM | 50 to 500 nM | 50 to 500 nM | 
CNC(=O)c1nnc(NC(=O)C2CC2)cc1Nc1cccc(-c2cnn([C@H]3C[C@H](Cc4cccc(C#N)n4)C3)c2)c1OC [Compound 349] | 0.01 to 10 nM | 500 to 5000 nM | 500 to 5000 nM | 
CNC(=O)c1nnc(NC(=O)C2CC2)cc1Nc1cccc(-c2cnn(C3CN(Cc4cccc(C(=O)N5CCCC5)n4)C3)c2)c1OC [Compound 356] | 0.01 to 10 nM | 10 to 50 nM | 10 to 50 nM | 
CNC(=O)c1nnc(NC(=O)C2CC2)cc1Nc1cccc(-c2cnn(C3CN(Cc4cccc(C(=O)N5CCC(C(F)(F)F)C5)n4)C3)c2)c1OC (stereo not drawn) [Compound 358] | 0.01 to 10 nM | 50 to 500 nM | 50 to 500 nM | 
CNC(=O)c1nnc(NC(=O)C2CC2)cc1Nc1cccc(-c2ccc(C3CN(Cc4ccccn4)C3)c(OC)c2)c1OC [Compound 359] | 50 to 500 nM | 5000 to 100000 nM | 500 to 5000 nM | 
CNC(=O)c1nnc(NC(=O)C2CC2)cc1Nc1cccc(-c2ccc(C3CN(Cc4cccc(C#N)n4)C3)c(OC)c2)c1OC [Compound 361] | 50 to 500 nM | 5000 to 100000 nM | 500 to 5000 nM | 
CNC(=O)c1nnc(NC(=O)C2CC2)cc1Nc1cccc(-c2ccc(C(=O)N(C)Cc3ncc(COC4CC4)s3)nc2)c1OC [Compound 362] | 0.01 to 10 nM | 500 to 5000 nM | 500 to 5000 nM | 
CNC(=O)c1nnc(NC(=O)OC2CC2)cc1Nc1cccc(-c2cnn(C3CN(Cc4cccc(C#N)n4)C3)c2)c1OC [Compound 364] | 0.01 to 10 nM | 50 to 500 nM | 50 to 500 nM | 
COc1c(Nc2cc(NC(=O)C3CC3)nnc2-c2ncc[nH]2)cccc1-c1ccc(C(=O)N(C)Cc2cc(C#N)ccn2)nc1 [Compound 366] | 0.01 to 10 nM | 50 to 500 nM | 50 to 500 nM | 
C=C(C)c1cccc(CN2CC(n3cc(-c4cccc(Nc5cc(NC(=O)C6CC6)nnc5C(=O)NC)c4OC)cn3)C2)n1 [Compound 367] | 0.01 to 10 nM | 50 to 500 nM | 50 to 500 nM | 
C=Cc1cccc(CN2CC(n3cc(-c4cccc(Nc5cc(NC(=O)C6CC6)nnc5C(=O)NC)c4OC)cn3)C2)n1 [Compound 368] | 0.01 to 10 nM | 50 to 500 nM | 50 to 500 nM | 
CNC(=O)c1nnc(NC(=O)C2CC2)cc1Nc1cccc(-c2cnn(C3CN(Cc4cccc(C5(C)COC5)n4)C3)c2)c1OC [Compound 369] | 0.01 to 10 nM | 50 to 500 nM | 50 to 500 nM | 
COc1c(Nc2cc(NC(=O)C3CC3)nnc2-c2ncc[nH]2)ccc(C)c1-c1ccc(C(=O)N(C)Cc2cc(C#N)ccn2)nc1 [Compound 371] | 0.01 to 10 nM | 50 to 500 nM | 50 to 500 nM | 
CNC(=O)c1nnc(NC(=O)C2CC2)cc1Nc1cccc(-c2cnn(C3CC(Oc4cccc(C#N)n4)C3)c2)c1OC (stereo not drawn) [Compound 372] | 0.01 to 10 nM | 500 to 5000 nM | 500 to 5000 nM | 
CNC(=O)c1nnc(NC(=O)C2CC2)cc1Nc1cccc(-c2cnn(C3CN(Cc4cccc(C(C)=O)n4)[C@H]3C)c2)c1OC (stereo partly drawn) [Compound 377] | 0.01 to 10 nM | 500 to 5000 nM | 500 to 5000 nM | 
CNC(=O)c1nnc(NC(=O)C2CC2)cc1Nc1cccc(-c2ccc(C(=O)N(C)Cc3cc(P(C)(C)=O)ccn3)nc2)c1OC [Compound 380] | 0.01 to 10 nM | 5000 to 100000 nM | 5000 to 100000 nM | 
CNC(=O)c1nnc(NC(=O)C2CC2)cc1Nc1cccc(-c2cnn(C3CN(Cc4cccc(C5(O)COC5)n4)C3)c2)c1OC [Compound 382] | 0.01 to 10 nM | 50 to 500 nM | 50 to 500 nM | 
CNC(=O)c1nnc(NC(=O)C2CC2)cc1Nc1cccc(-c2cnn([C@H]3C[C@@H](N(C)c4ccccn4)C3)c2)c1OC [Compound 383] | 0.01 to 10 nM | 5000 to 100000 nM | 5000 to 100000 nM | 
CNC(=O)c1nnc(NC(=O)C2CC2)cc1Nc1cccc(-c2ccc(C3CN(Cc4ccc5c(n4)CCC5)C3)nc2)c1OC [Compound 385] | 50 to 500 nM | 5000 to 100000 nM | 500 to 5000 nM | 
CCOc1cccc(CN2CC(c3ccc(-c4cccc(Nc5cc(NC(=O)C6CC6)nnc5C(=O)NC)c4OC)cn3)C2)n1 [Compound 389] | 50 to 500 nM | 5000 to 100000 nM | 500 to 5000 nM | 
CNC(=O)c1nnc(NC(=O)C2CC2)cc1Nc1cccc(-c2ccc(C3CN(Cc4cccc(C(F)(F)F)n4)C3)nc2)c1OC [Compound 391] | 10 to 50 nM | 5000 to 100000 nM | 500 to 5000 nM | 
CCS(=O)(=O)c1ccnc(CN(C)C(=O)c2ccc(-c3cccc(Nc4cc(NC(=O)C5CC5)nnc4C(=O)NC)c3OC)cn2)c1 [Compound 394] | 0.01 to 10 nM | 10 to 50 nM | 10 to 50 nM | 
[2H]C([2H])(c1cccnn1)N1CC(n2cc(-c3cccc(Nc4cc(NC(=O)C5CC5)nnc4C(=O)NC)c3OC)cn2)C1 [Compound 408] |  | 50 to 500 nM | 50 to 500 nM | 0.01 to 10 nM

Now from value to molecule:

Kd [1] | IC50 [2] | IC50 [3] | Kd ([1]; SPR, JAK2 JH2 domain) | SMILES
0.01 to 10 nM | 50 to 500 nM | 50 to 500 nM |  | CNC(=O)c1nnc(NC(=O)C2CC2)cc1Nc1cccc(-c2cn(C3CN(Cc4cccc(C(F)F)n4)C3)cn2)c1OC [Compound 341]
0.01 to 10 nM | 50 to 500 nM | 50 to 500 nM |  | CNC(=O)c1nnc(NC(=O)C2CC2)cc1Nc1cccc(-c2cnn(C3CN(Cc4cc(C(F)F)cc(C#N)n4)C3)c2)c1OC [Compound 344]
0.01 to 10 nM | 500 to 5000 nM | 500 to 5000 nM |  | CNC(=O)c1nnc(NC(=O)C2CC2)cc1Nc1cccc(-c2cnn(C3CN(Cc4cccc(C(C)(C)COC)n4)C3)c2)c1OC [Compound 351]
0.01 to 10 nM | 50 to 500 nM | 10 to 50 nM |  | CCN(C)C(=O)c1cccc(CN2CC(n3cc(-c4cccc(Nc5cc(NC(=O)C6CC6)nnc5C(=O)NC)c4OC)cn3)C2)n1 [Compound 354]
0.01 to 10 nM | 50 to 500 nM | 10 to 50 nM |  | CNC(=O)c1nnc(NC(=O)C2CC2)cc1Nc1cccc(-c2cnn(C3CN(Cc4cccc(C(=O)N5CCC5)n4)C3)c2)c1OC [Compound 355]
0.01 to 10 nM | 50 to 500 nM | 10 to 50 nM |  | CNC(=O)c1nnc(NC(=O)C2CC2)cc1Nc1cccc(-c2cnn(C3CN(Cc4cccc(C(=O)N5CCC(F)(F)C5)n4)C3)c2)c1OC [Compound 357]
50 to 500 nM | 5000 to 100000 nM | 500 to 5000 nM |  | CNC(=O)c1nnc(NC(=O)C2CC2)cc1Nc1cccc(-c2ccc(C3CN(Cc4cc(C#N)ccn4)C3)c(OC)c2)c1OC [Compound 360]
0.01 to 10 nM | 500 to 5000 nM | 50 to 500 nM |  | COc1c(Nc2cc(NC(=O)C3CC3)nnc2-c2ncc[nH]2)cccc1-c1ccc(C(=O)N(C)Cc2cn(C)nc2C)nc1 [Compound 363]
0.01 to 10 nM | 500 to 5000 nM | 500 to 5000 nM |  | CNC(=O)c1nnc(NC(=O)C2CC2)cc1Nc1cccc(-c2cnn(C3CN(Cc4ncccc4O)C3)c2)c1OC [Compound 365]
0.01 to 10 nM | 500 to 5000 nM | 500 to 5000 nM |  | CNC(=O)c1nnc(NC(=O)C2CC2)cc1Nc1cccc(-c2cnn(C3CC(C(O)c4ccccn4)C3)c2)c1OC (stereo not drawn) [Compound 370]
0.01 to 10 nM | 50 to 500 nM | 50 to 500 nM |  | CNC(=O)c1nnc(NC(=O)C2CC2)cc1Nc1cccc(-c2cnn(C3CN(Cc4cccn5ccnc45)C3)c2)c1OC [Compound 373]
0.01 to 10 nM | 50 to 500 nM | 50 to 500 nM |  | CNC(=O)c1nnc(NC(=O)C2CC2)cc1Nc1cccc(-c2cnn(C3CN(Cc4cccc5nccn45)C3)c2)c1OC [Compound 374]
0.01 to 10 nM | 500 to 5000 nM | 500 to 5000 nM |  | COc1c(Nc2cc(NC(=O)C3CC3)nnc2-c2ncc[nH]2)ccc(C)c1-c1ccc(C(=O)N(C)Cc2cn(C)nc2C)nc1 [Compound 376]
0.01 to 10 nM | 500 to 5000 nM | 500 to 5000 nM |  | CNC(=O)c1nnc(NC(=O)C2CC2)cc1Nc1cccc(-c2cnn(C3CN(Cc4cccc(P(C)(C)=O)n4)C3)c2)c1OC [Compound 378]
0.01 to 10 nM | 50 to 500 nM | 50 to 500 nM |  | CNC(=O)c1nnc(NC(=O)C2CC2)cc1Nc1cccc(-c2cnn(C3CN(Cc4cccc5c(F)cnn45)C3)c2)c1OC [Compound 381]
0.01 to 10 nM | 500 to 5000 nM | 500 to 5000 nM |  | CNC(=O)c1nnc(NC(=O)C2CC2)cc1Nc1cccc(-c2cnn(C3CN(Cc4cccc(C(=O)N(C)CCN)n4)C3)c2)c1OC [Compound 384]
50 to 500 nM | 5000 to 100000 nM | 500 to 5000 nM |  | CNC(=O)c1nnc(NC(=O)C2CC2)cc1Nc1cccc(-c2ccc(C3CN(Cc4ccc(Cl)cn4)C3)nc2)c1OC [Compound 388]
